In ChEMBL document CHEMBL1201862, “PubChem BioAssay data set” (2004):
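Assay format: 96-well plates, 48-hour exposure. GI50 is the concentration that inhibits growth by half.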 Active and inactive are the calls of the source. No stated cut-off is given here; in the data, active = GI50 up to about 1.1 µM and inactive = higher.

Columns and labels:
Assay in all cases: NCI anticancer screen, dose series, 48 h
MDA-MB-231 = test system: MDA-MB-231
SK-MEL-5 = test system: SK-MEL-5
MCF7 = test system: MCF7
SW-620 = test system: SW-620
UO-31 = test system: UO-31
U-251 = test system: U-251
SF-295 = test system: SF-295
LOX IMVI = test system: LOX IMVI
EKVX = test system: EKVX
DU-145 = test system: DU-145
HOP-92 = test system: HOP-92
MOLT-4 = test system: MOLT-4
SNB-75 = test system: SNB-75
M14 = test system: M14
OVCAR-8 = test system: OVCAR-8
NCI-H522 = test system: NCI-H522
ACHN = test system: ACHN
SF-268 = test system: SF-268
HOP-62 = test system: HOP-62
K562 = test system: K562
Malme-3M = test system: Malme-3M
PC-3 = test system: PC-3
MDA-MB-435 = test system: MDA-MB-435
OVCAR-3 = test system: OVCAR-3
UACC-62 = test system: UACC-62
SK-MEL-2 = test system: SK-MEL-2
SNB-19 = test system: SNB-19
TK-10 = test system: TK-10
OVCAR-5 = test system: OVCAR-5
IGROV-1 = test system: IGROV-1
A549 = test system: A549
SK-OV-3 = test system: SK-OV-3
HT-29 = test system: HT-29
NCI-H226 = test system: NCI-H226
NCI-H23 = test system: NCI-H23
HCT-15 = test system: HCT-15
OVCAR-4 = test system: OVCAR-4
Hs-578T = test system: Hs-578T
MDA-N = test system: MDA-N
COLO 205 = test system: COLO 205
RPMI-8226 = test system: RPMI-8226
SK-MEL-28 = test system: SK-MEL-28
SN12C = test system: SN12C
786-0 = test system: 786-0
HCT-116 = test system: HCT-116
NCI/ADR-RES = test system: NCI/ADR-RES
SR = test system: SR
A498 = test system: A498
KM12 = test system: KM12
HCC 2998 = test system: HCC 2998
UACC-257 = test system: UACC-257
NCI-H460 = test system: NCI-H460
RXF 393 = test system: RXF 393
CAKI-1 = test system: CAKI-1
HL-60 = test system: HL-60
T47D = test system: T47D
CCRF-CEM = test system: CCRF-CEM

SMILES: COc1ccc(/C=C2\N=C(SC)N(CN3CCCCC3)C2=O)cc1
- GI50 (MDA-MB-231): > 100 µM (inactive)
- GI50 (SK-MEL-5): > 100 µM (inactive)
- GI50 (MCF7): > 100 µM (inactive)
- GI50 (SW-620): > 100 µM (inactive)
- GI50 (UO-31): > 100 µM (inactive)
- GI50 (U-251): > 100 µM (inactive)
- GI50 (SF-295): > 100 µM (inactive)
- GI50 (LOX IMVI): > 100 µM (inactive)
- GI50 (EKVX): > 100 µM (inactive)
- GI50 (DU-145): > 100 µM (inactive)
- GI50 (HOP-92): 0.347 µM (active)
- GI50 (MOLT-4): > 100 µM (inactive)
- GI50 (SNB-75): > 100 µM (inactive)
- GI50 (M14): > 100 µM (inactive)
- GI50 (OVCAR-8): > 100 µM (inactive)
- GI50 (NCI-H522): > 100 µM (inactive)
- GI50 (ACHN): > 100 µM (inactive)
- GI50 (SF-268): > 100 µM (inactive)
- GI50 (HOP-62): 58.7 µM (inactive)
- GI50 (K562): > 100 µM (inactive)
- GI50 (Malme-3M): > 100 µM (inactive)
- GI50 (PC-3): > 100 µM (inactive)
- GI50 (MDA-MB-435): > 100 µM (inactive)
- GI50 (OVCAR-3): > 100 µM (inactive)
- GI50 (UACC-62): > 100 µM (inactive)
- GI50 (SK-MEL-2): > 100 µM (inactive)
- GI50 (SNB-19): > 100 µM (inactive)
- GI50 (TK-10): > 100 µM (inactive)
- GI50 (OVCAR-5): > 100 µM (inactive)
- GI50 (IGROV-1): > 100 µM (inactive)
- GI50 (A549): > 100 µM (inactive)
- GI50 (SK-OV-3): > 100 µM (inactive)
- GI50 (HT-29): > 100 µM (inactive)
- GI50 (NCI-H226): > 100 µM (inactive)
- GI50 (NCI-H23): > 100 µM (inactive)
- GI50 (HCT-15): > 100 µM
- GI50 (OVCAR-4): > 100 µM (inactive)
- GI50 (Hs-578T): > 100 µM (inactive)
- GI50 (MDA-N): > 100 µM (inactive)
- GI50 (COLO 205): > 100 µM (inactive)
- GI50 (RPMI-8226): > 100 µM (inactive)
- GI50 (SK-MEL-28): > 100 µM (inactive)
- GI50 (SN12C): > 100 µM (inactive)
- GI50 (786-0): > 100 µM (inactive)
- GI50 (HCT-116): > 100 µM (inactive)
- GI50 (NCI/ADR-RES): > 100 µM (inactive)
- GI50 (SR): > 100 µM (inactive)
- GI50 (A498): 42.4 µM (inactive)
- GI50 (KM12): > 100 µM (inactive)

SMILES: CCOC(=O)c1c(-c2ccccc2)nc2ccccc2c1O
- GI50 (SK-MEL-5): > 100 µM (inactive)
- GI50 (MCF7): > 100 µM (inactive)
- GI50 (SW-620): > 100 µM (inactive)
- GI50 (UO-31): > 100 µM (inactive)
- GI50 (U-251): > 100 µM (inactive)
- GI50 (SF-295): > 100 µM (inactive)
- GI50 (EKVX): > 100 µM (inactive)
- GI50 (DU-145): > 100 µM (inactive)
- GI50 (HCC 2998): > 100 µM (inactive)
- GI50 (UACC-257): > 100 µM (inactive)
- GI50 (HOP-92): > 100 µM (inactive)
- GI50 (MOLT-4): > 100 µM (inactive)
- GI50 (SNB-75): > 100 µM (inactive)
- GI50 (M14): > 100 µM (inactive)
- GI50 (OVCAR-8): > 100 µM (inactive)
- GI50 (NCI-H460): > 100 µM (inactive)
- GI50 (ACHN): > 100 µM (inactive)
- GI50 (SF-268): > 100 µM (inactive)
- GI50 (HOP-62): > 100 µM (inactive)
- GI50 (K562): > 100 µM (inactive)
- GI50 (Malme-3M): > 100 µM (inactive)
- GI50 (PC-3): > 100 µM (inactive)
- GI50 (RXF 393): > 100 µM (inactive)
- GI50 (SNB-19): > 100 µM (inactive)
- GI50 (TK-10): > 100 µM (inactive)
- GI50 (OVCAR-5): > 100 µM (inactive)
- GI50 (IGROV-1): > 100 µM (inactive)
- GI50 (A549): > 100 µM (inactive)
- GI50 (SK-OV-3): > 100 µM (inactive)
- GI50 (HT-29): > 100 µM (inactive)
- GI50 (CAKI-1): > 100 µM (inactive)
- GI50 (NCI-H23): > 100 µM (inactive)
- GI50 (HL-60): > 100 µM (inactive)
- GI50 (HCT-15): > 100 µM
- GI50 (OVCAR-4): > 100 µM (inactive)
- GI50 (Hs-578T): > 100 µM (inactive)
- GI50 (T47D): > 100 µM (inactive)
- GI50 (MDA-N): > 100 µM (inactive)
- GI50 (COLO 205): > 100 µM (inactive)
- GI50 (RPMI-8226): > 100 µM (inactive)
- GI50 (SK-MEL-28): > 100 µM (inactive)
- GI50 (786-0): > 100 µM (inactive)
- GI50 (HCT-116): > 100 µM (inactive)
- GI50 (NCI/ADR-RES): > 100 µM (inactive)
- GI50 (SR): > 100 µM (inactive)
- GI50 (A498): > 100 µM (inactive)
- GI50 (KM12): > 100 µM (inactive)
- GI50 (CCRF-CEM): > 10 µM (inactive)

SMILES: COc1cc(/C=C/C(=O)c2ccc(O)c(OC)c2)ccc1O
- GI50 (MDA-MB-231): 29.1 µM (inactive)
- GI50 (SF-295): 20.6 µM (inactive)
- GI50 (EKVX): 12.3 µM (inactive)
- GI50 (UACC-257): 22.5 µM (inactive)
- GI50 (HOP-92): 27.2 µM (inactive)
- GI50 (SNB-75): 24.8 µM (inactive)
- GI50 (NCI-H522): 14.5 µM (inactive)
- GI50 (Malme-3M): 22.3 µM (inactive)
- GI50 (OVCAR-3): 18.7 µM (inactive)
- GI50 (SK-MEL-2): 20.3 µM (inactive)
- GI50 (TK-10): 46.8 µM (inactive)
- GI50 (OVCAR-5): 24.8 µM (inactive)
- GI50 (SK-OV-3): 13.4 µM (inactive)
- GI50 (NCI-H226): 24.5 µM (inactive)
- GI50 (OVCAR-4): 24.3 µM (inactive)
- GI50 (Hs-578T): 17.5 µM (inactive)
- GI50 (T47D): 22.9 µM (inactive)
- GI50 (COLO 205): 20.1 µM (inactive)
- GI50 (SK-MEL-28): 17.6 µM (inactive)
